Results: patent US20260199426A1, “CYCLIC LIPOPEPTIDE ANTIBIOTIC COMPOUNDS FOR USE IN THE TREATMENT OF PROTEIN AGGREGATION DISEASE” (DEUTSCHES ZENTRUM FÜR NEURODEGENERATIVE ERKRANKUNGEN E. V., priority 2022, published 2026)
*1 amine or outer side, *2 acyl side, *3 side chain or, on linkers, in order; H or OH if unused. Where a SMILES comes first, the peptide text is derived from it. Bridges are numbered along the chain shown (N, C = ends). [ ]: non-standard residue; d: D form. The star is where a group is joined. ξ: configuration not given here. X2 = O=C(C(N[*:1])c1ccc(OC2OC(CO)C(O)C(O)C2OC2OC(CO)C(O)C(O)C2O)cc1)[*:2]; Octa(2Z,4E)dienoyl(7-Me) = CC(C)C/C=C/C=C\C(=O)*; ξPhg(3-Cl-4-OH) = NC(C(=O)O)c1ccc(O)c(Cl)c1; X1 = NC(=O)C(O[*:3])C(N[*:1])C(=O)[*:2]; Hpg = N[CH](C(=O)O)c1ccc(O)cc1; Orn = NCCC[CH](N)C(=O)O

Experiments:
TGFBI peptide = TGFBI peptide aggregation assay (ThT, TEM); details: compound/TGFBI mixture
2N4R Tau [1] = molecular target: T1, 2N4R Tau (Homo sapiens, UniProt P10636); assay: Seeded Tau aggregation assay (ThT fluorescence, TEM of the fibrils formed); details: Tau:Ramoplanin A2 mole ratios 1:3 and 1:5; lower Tm = faster aggregation
monomeric 2N4R Tau = monomeric 2N4R Tau (Homo sapiens, UniProt P10636); assay: 1D 1H-NMR titration of Ramoplanin A2 with unlabeled 2N4R Tau (binding epitopes); details: 200 μM Ramoplanin A2 : 30 μM Tau, 37° C.
[2] = system: NM region of the Sup35 prion protein (HA-epitope tagged NM) in N2a cells; format: cell-based; details: 500 nM NM fibrils, 24 h
[3] = system: 22 L scrapie prion infection of fibroblast cell clone L929 15.9 (PrP^Sc); format: cell-based
[4] = molecular target: T2, amylin (human islet amyloid polypeptide or hIAPP) (Homo sapiens, UniProt P10997); assay: Amylin aggregation assay (ThT); format: biochemical; details: 5 μM hIAPP monomers, various doses, 37° C.
T2 construct: 5 μM amylin (human islet amyloid polypeptide or hIAPP) monomers
T2 sequence (P10997 34-70 limits assumed): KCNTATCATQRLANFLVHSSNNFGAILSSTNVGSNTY

[5] = molecular target: N-terminally acetylated alpha-synuclein (Asyn) (Homo sapiens, UniProt P37840); assay: Seeded α-synuclein aggregation assay (ThT fluorescence, TEM); format: biochemical
Description: (§1) (A, B) Thioflavin-T (ThT) fluorescence curves of N-terminally acetylated alpha-synuclein (Asyn) in the absence (cross) and presence of a 3-fold excess (white circles) of compound. […] Quantitative analysis of Asyn aggregation kinetics was performed by nonlinear regression with sigmoidal fitting to determine the midpoint value (Tm) of the fluorescence curve as well as the fluorescence span. Unpaired two-tailed t-test was performed to test the null hypothesis (p≤0.0332(*), p≤0.002(**), p≤0.0002 (***), p≤0.0001 (****)). […] (C) TEM imaging analysis of the compound/Asyn mixtures. Scale bars correspond to 200 nm.
as §1, with “ThT” for “Thioflavin-T (ThT)”, “circles or triangles)” for “circles)”
(A) ThT fluorescence curves of N-terminally acetylated alpha-synuclein (Asyn) in the absence (cross) and presence of a 3-fold excess (white circles) of compound. […] Quantitative analysis of Asyn aggregation kinetics was performed by nonlinear regression with sigmoidal fitting to determine the midpoint value (Tm) of the fluorescence curve as well as the fluorescence span.
Asyn protein stock solutions were prepared in 50 mM HEPES at pH 7.4 with 100 mM NaCl. Stocks of compounds were prepared in the same buffer (500 μM) or as 10 mM compound in DMSO. […] The microplate was likewise subjected to the incubation and fluorescence measurement program used in in vitro assay 1. After about 2-4 days of incubation, ThT fluorescence emission reached the maximal value and the Asyn fibril-containing mixture was collected as “fibril seed” mixture for subsequent Asyn aggregation experiments.

[6] = system: tau neurofibrillary tangles; assay: Formation of tau neurofibrillary tangles in mice; format: in vivo, mouse; details: in feed from 3-4 weeks of age, approximately 9 months
2N4R Tau [7] = molecular target: T1, 2N4R Tau; assay: Tau pelleting assay (SDS-PAGE of soluble fraction); details: mole ratios 1:3 and 1:5
[8] = molecular target: pre-formed 2N4R Tau fibrils (Homo sapiens, UniProt P10636); assay: Tau fibril dissolution assay (pre-formed fibrils, ThT span, TEM); details: mole ratios 1:0.3 and 1:1
[9] = system: Tau aggregation in HEK biosensor cells (TauRD^LM-GFP)
[10] = system: NM region of the Sup35 prion protein (NM-GFP) in HEK cells; format: cell-based, human
monomeric Tau (2N4R) = monomeric Tau (2N4R) (Homo sapiens, UniProt P10636)
[11] = system: spread of tau aggregates between nerve cells in PS19 mice; assay: Spreading of tau aggregates after intracerebral injection of tau fibrils in PS19 mice; format: in vivo, mouse; details: in food from two months of age; tau fibril injection four weeks after start
[12] = system: Tau-induced degeneration of Drosophila eyes (GMR-Gal4/WT Tau); assay: Drosophila neurodegeneration model (Tau-induced eye degeneration); details: oral in food from larvae stage to adult stage; 15, 30, and 44 μM

Chain of monomeric Tau (2N4R) (P10636 1-441 isoform P10636-8): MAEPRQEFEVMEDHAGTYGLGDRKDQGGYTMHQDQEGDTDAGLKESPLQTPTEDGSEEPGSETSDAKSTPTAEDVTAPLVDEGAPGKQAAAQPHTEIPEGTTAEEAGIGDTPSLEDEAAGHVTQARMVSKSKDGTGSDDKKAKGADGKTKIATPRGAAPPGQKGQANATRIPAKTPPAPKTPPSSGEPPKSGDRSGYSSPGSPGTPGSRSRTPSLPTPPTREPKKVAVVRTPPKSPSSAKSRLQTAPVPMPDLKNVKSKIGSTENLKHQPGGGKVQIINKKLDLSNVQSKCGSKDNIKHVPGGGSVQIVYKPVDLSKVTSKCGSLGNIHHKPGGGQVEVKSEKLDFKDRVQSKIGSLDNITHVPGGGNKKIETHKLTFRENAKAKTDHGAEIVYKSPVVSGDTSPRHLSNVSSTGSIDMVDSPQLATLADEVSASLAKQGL
T1 sequence (P10636 1-441 isoform P10636-8): as above
Chain of monomeric 2N4R Tau (P10636 1-441 isoform P10636-8): as above
Chain of pre-formed 2N4R Tau fibrils (P10636 1-441 isoform P10636-8): as above

## CC(C)C/C=C/C=C\C(=O)NC(CC(N)=O)C(=O)NC1C(=O)NC(c2ccc(O)cc2)C(=O)NC(CCCN)C(=O)NC(C(C)O)C(=O)NC(c2ccc(O)cc2)C(=O)NC(c2ccc(O)cc2)C(=O)NC(C(C)O)C(=O)NC(Cc2ccccc2)C(=O)NC(CCCN)C(=O)NC(c2ccc(OC3OC(CO)C(O)C(O)C3OC3OC(CO)C(O)C(O)C3O)cc2)C(=O)NC(C(C)O)C(=O)NC(c2ccc(O)cc2)C(=O)NCC(=O)NC(CC(C)C)C(=O)NC(C)C(=O)NC(c2ccc(O)c(Cl)c2)C(=O)OC1C(N)=O (stereo not shown) [Ramoplanin A2] ({Octa(2Z,4E)dienoyl(7-Me)}-N[X1][Hpg][Orn]T[Hpg][Hpg]TF[Orn][X2]T[Hpg]GLA[ξPhg(3-Cl-4-OH)]; ester 2-C; configuration not given here)
TGFBI peptide
  TGFBI fibril morphology (TEM): shorter fibrils
2N4R Tau [1]
  midpoint values (Tm) of the fluorescence curves: accelerates Tau fibrillization
Monomeric 2N4R Tau
  involvement of the peptide backbone of Ramoplanin A2 in binding (proton CSPs): involved in binding to monomeric Tau
[2]
  percent of cells with aggregates of the prion protein: reduced with increasing concentration
[3]
  pathogenic prion protein PrP^Sc (proteinase K resistant, Western blot): reduction
[3]; 3 μM, 9 d
  total PrP (Western blot): reduction
[3]; 3 μM, 9 d, 1% 22 L scrapie brain homogenate
  prion infection in cellular model: prevents prion infection in cellular model
[4]
  in vitro aggregation of amylin (final ThT fluorescence, t=50 h): inhibit the in vitro aggregation of amylin
[5]; 3-fold excess of compound, 25 μM Asyn monomers, 1% (v/v) fibril seeds, 37° C.
  in vitro aggregation of alpha-synuclein (ThT fluorescence): inhibit the in vitro aggregation
[5]; compound/Asyn mixtures
  Asyn fibril morphology (TEM): shorter fibrils
[6]
  formation of tau neurofibrillary tangles: inhibits the formation of tau neurofibrillary tangles
2N4R Tau [7]
  amount of soluble Tau (SDS-PAGE): increased
[8]
  dissolution of Tau fibrils: not dissolved
[9]; induced by Tau^P301L fibrils, 0.25 μM to 40 μM, 48 hours, with or without lipofectamine
  Tau aggregate formation: decreased aggregate formation
[9]; induced by brain homogenate of PS19 mice, 0.25 μM to 26.5 μM, 24 hours, lipofectamine
  aggregation of Tau: inhibits the aggregation of Tau in HEK biosensor cells
[9]; induced by cell lysate containing Tau aggregates, 0.25 μM to 40 μM, 22 h, lipofectamine
  inhibition of seeded Tau aggregation: showed inhibition of seeded Tau aggregation
[9]; induced by cell lysate, 0.25 μM to 40 μM, 22 h, lipofectamine
  inhibition of seeded Tau aggregation, comparison among the tested compounds: strongest dose-dependent inhibition of seeded Tau aggregation
[10]
  percent of cells with aggregates of the prion protein: reduced with increasing concentration
Monomeric Tau (2N4R); 18 μM 15N Tau, mole ratios 1:0.3 to 1:30
  binding to monomeric Tau (CSPs above ~0.0025 ppm with signal broadening I/I0<1): binding of Ramoplanin A2 to specific regions/residues in the monomeric form of Tau
Monomeric Tau (2N4R); 10-fold excess of Ramoplanin A2
  conformational state of Tau (chemical shift dispersion along 1H dimension): Tau remains disordered
[11]
  spread of tau aggregates between nerve cells and formation of new tau fibrils: hinders the spread of tau aggregates between nerve cells and the formation of new tau fibrils
[12]
  percent degeneration of Drosophila eyes: lowers the percent degeneration of Drosophila eyes
